{"source": "patent US20050203115A1", "about": "“Narcotic-NSAID ion pairs” (priority 2004, published 2005)", "key": {"[1]": {"conditions": "methanolic solution 61 mg/mL added to HCl 0.1 N", "source_text": "Measurements were obtained using a Sympatec HELOS model KF particle sizer with SUCELL and R5 lens (0.5-875 μm), pump, and stirrer speeds set to 50% of the maximum value."}, "[2]": {"conditions": "approx. 48 mg in 400 mL, 36.8° C., approximately 12 hours", "method": "The solutions were stirred by paddles at 150 RPM for approximately 12 hours. […] The standards and sample preparations were measured at 282 nm in a 1 cm cell using a UV spectrophotometer. The results were determined from the linearity curve generated from the standard data."}}, "note": "Where two headings read alike, the source gives them in different places.", "data": [{"smiles": "CCC(=O)O[C@](Cc1ccccc1)(c1ccccc1)[C@H](C)CN(C)C.O=C(O)Cc1ccccc1Nc1c(Cl)cccc1Cl", "note": "[Propoxyphene Diclofenate, (2S,3R)-(+)-4-(Dimethylamino)-3-methyl-1,2-diphenyl-2-butanol Propionate Diclofenate]", "values": [{"measurement": "Particle size Mean", "setting": "[1]; 15 minutes", "result": 152.4, "unit": "μm"}, {"measurement": "Particle size ≦50%", "setting": "[1]; 15 minutes", "result": 141.2, "unit": "μm"}, {"measurement": "Particle size ≦90%", "setting": "[1]; 15 minutes", "result": 287.9, "unit": "μm"}, {"measurement": "Particle size Mean", "setting": "[1]; 45 minutes", "result": 155.5, "unit": "μm"}, {"measurement": "Particle size ≦50%", "setting": "[1]; 45 minutes", "result": 143.0, "unit": "μm"}, {"measurement": "Particle size ≦90%", "setting": "[1]; 45 minutes", "result": 293.9, "unit": "μm"}, {"measurement": "Particle size Mean", "setting": "[1]; 75 minutes", "result": 161.7, "unit": "μm"}, {"measurement": "Particle size ≦50%", "setting": "[1]; 75 minutes", "result": 140.5, "unit": "μm"}, {"measurement": "Particle size ≦90%", "setting": "[1]; 75 minutes", "result": 308.6, "unit": "μm"}, {"measurement": "Particle size Mean", "setting": "[1]; 120 minutes", "result": 149.2, "unit": "μm"}, {"measurement": "Particle size ≦50%", "setting": "[1]; 120 minutes", "result": 135.4, "unit": "μm"}, {"measurement": "Particle size ≦90%", "setting": "[1]; 120 minutes", "result": 286.3, "unit": "μm"}, {"measurement": "Particle size Mean", "setting": "[1]; 150 minutes", "result": 124.2, "unit": "μm"}, {"measurement": "Particle size ≦50%", "setting": "[1]; 150 minutes", "result": 110.2, "unit": "μm"}, {"measurement": "Particle size ≦90%", "setting": "[1]; 150 minutes", "result": 238.4, "unit": "μm"}, {"measurement": "% Dissolved", "setting": "[2]; water pH 3", "result": 0.009, "unit": "%"}, {"measurement": "mg Dissolved from 48 mg Solution", "setting": "[2]; water pH 3", "result": 0.004, "unit": "mg"}, {"measurement": "mg/mL Dissolved", "setting": "[2]; water pH 3", "result": "1.0528e-05", "unit": "mg/mL"}, {"measurement": "% Dissolved", "setting": "[2]; water pH 5", "result": 74.878, "unit": "%"}, {"measurement": "mg Dissolved from 48 mg Solution", "setting": "[2]; water pH 5", "result": 36.005, "unit": "mg"}, {"measurement": "mg/mL Dissolved", "setting": "[2]; water pH 5", "result": 0.09, "unit": "mg/mL"}, {"measurement": "% Dissolved", "setting": "[2]; water pH 7", "result": 75.677, "unit": "%"}, {"measurement": "mg Dissolved from 48 mg Solution", "setting": "[2]; water pH 7", "result": 36.644, "unit": "mg"}, {"measurement": "mg/mL Dissolved", "setting": "[2]; water pH 7", "result": 0.0916, "unit": "mg/mL"}, {"measurement": "% Dissolved", "setting": "[2]; water pH 9", "result": 71.168, "unit": "%"}, {"measurement": "mg Dissolved from 48 mg Solution", "setting": "[2]; water pH 9", "result": 34.018, "unit": "mg"}, {"measurement": "mg/mL Dissolved", "setting": "[2]; water pH 9", "result": 0.08504, "unit": "mg/mL"}, {"measurement": "% Dissolved", "setting": "[2]; water pH 11", "result": 39.395, "unit": "%"}, {"measurement": "mg Dissolved from 48 mg Solution", "setting": "[2]; water pH 11", "result": 18.700, "unit": "mg"}, {"measurement": "mg/mL Dissolved", "setting": "[2]; water pH 11", "result": 0.04676, "unit": "mg/mL"}]}]}
